PMC6163344, “A Novel Cell Penetrating Peptide for the Differentiation of Human Neural Stem Cells” (Biomolecules, 2018)

Assays:
ReNcell VM (RVM) cells [1] = assay: 24 h cytotoxicity, CCK-8 (WST-8) or PrestoBlue; assay type: cell-based, human; conditions: 24 h treatment
Protocol: Sterile peptide solutions for cytotoxicity testing were prepared from stock by diluting with deionized (DI) water and filtering through a 0.22 µm polytetrafluoroethylene (PTFE) membrane. Because of aggregations and decreased solubility in water at high concentrations, a standard curve was used to determine the concentrations of the filtered peptides. Briefly, 5 µL of sample or serial diluted peptide stocks with known concentrations prepared from weighed powder, were aliquoted into wells of a 96-well half area plate. Then, 45 µL of methanol was added to each well to fully solubilize all the peptides. Absorbance measurements at 554 nm (650 nm as reference) were taken on a Tecan infinite M200 Pro plate reader (Tecan Group, Männedorf, Switzerland). After the calculation of stock concentrations, peptides were further diluted with cell culture media for treatment.
There were 10,000 ReNcell VM cells (passages below 15) that were seeded in each well, with 100 µL of RVM cell culture media supplemented with the growth factors bFGF and EGF.
For the PepB series (Figure 1 and Table 1) testing, the RVM cells were incubated with peptides for 24 h. […] After incubation for 1 h, for WST-8, a Tecan infinite M200 Pro plate reader was utilized to acquire absorbance measurements at 450 nm (650 nm as reference) and normalized to the untreated controls.

[2] = system: β-III tubulin expression in ReNcell VM; assay: RVM differentiation, quantitative immunocytochemistry for β-III tubulin; assay type: cell-based, human; conditions: 0.1 µM, N = 3
Protocol: (§1) The laminin solution was removed prior to cell seeding. 2 × 10^4 ReNcell VM between passages 8 and 10 were seeded in the 8-well chamber slides with 400 µL of proliferation media. The cells were grown to 70% confluency. Differentiation for RVM is initiated by growth factor withdrawal or in combination with RA or RA-PepB3. The media were replaced every 48–72 h for the duration of the differentiation. Compound treatment was only performed for one week, at which point all cells were commonly grown in growth factor withdrawal media.
(§2) Cells were fixed with 4% PFA at room temperature for 15 min. After rinsing with PBS, blocking and permeabilization were done simultaneously using 5% donkey serum and 0.3% Triton-X 100 in PBS for 30 min at room temperature. The cells were rinsed with PBS and primary antibodies were applied for 2 h at room temperature. The cells were rinsed again with PBS and secondary antibodies were applied for 1 h at room temperature. […] The cells positive for β-III tubulin and MAP2 were counted using ImageJ. […] The fluorescence channels were separated, background removed, and contrast enhanced. The number of DAPI positive cells were counted using an in-house coded nuclei counter. […] The channels were then re-merged and the cells positive for β-III tubulin and MAP2 were manually counted. […]

[3] = system: MAP2 expression in ReNcell VM; assay: RVM differentiation, quantitative immunocytochemistry for MAP2; assay type: cell-based, human; conditions: 0.1 µM, compound treatment for the initial one week, four weeks of differentiation, N = 3
Protocol: as §1, §2

ReNcell VM (RVM) cells [4] = conditions: PrestoBlue, N = 3
[5] = set-up: method as in PMID 1898007; conditions: reported solubility limit in water; cited from earlier work
Source text: Neurogenesis is an important biological process under intense investigation. Neurodegenerative diseases such as Alzheimer’s and Parkinson’s are devastating due to the fact that neurons cannot be replaced in the diseased areas of the brain [1]. […] To exert its effects ... || Retinoic acid is a potent morphogen used to differentiate stem cells towards the neural lineage.

[6] = system: undifferentiated RVM cells cultured in Matrigel; conditions: microarray chip, read-out: viability IC50; cited from earlier work

**Q.** What does the source list for `CC1=C(/C=C/C(C)=C/C=C/C(C)=C/C(=O)O)C(C)(C)CCC1` [RA, All-Trans-Retinoic Acid]?
**A.** fraction of RVM cells killed (ReNcell VM (RVM) cells [1]; 10 µM, PrestoBlue or Cell Counting Kit-8, N = 3): more than 50%; concentration at which RVM cells started significantly dying (ReNcell VM (RVM) cells [1]; 0–10 µM tested, N = 3): 5 µM; β-III tubulin expression, fold versus growth factor withdrawal control ([2]; compound treatment for the initial one week, four weeks of differentiation): 2 fold; β-III tubulin expression, fold versus no growth factor control ([2]; one week of differentiation): 1.5 fold; MAP2 expression, fold versus control [3]: 2.5 fold; proliferation versus controls after 24 h (ReNcell VM (RVM) cells [4]; 5 and 10 µM RA): significantly less proliferation than the controls; proliferation versus controls by day three (ReNcell VM (RVM) cells [4]; all tested concentrations of RA, medium refreshed every 48 h): significantly reduced rates of proliferation; solubility in aqueous environments [5]: < 0.2 µM; IC50 [6]: 740 nM
